In test [1] the target is T1, hCB1R (Homo sapiens, UniProt P21554).
T1 construct: expressed in transfected cells; host or cells: CHO-K1
Kind of test: cell-based. The class given is cell-based. The following applies: for EC50: CHO hCB1R, 10 µM FSK, 90 min, value with 95% CI, read-out: CB1R cAMP Inhibition EC50; for Emax: read-out: CB1R cAMP Inhibition Emax; for CB1R-dependent inhibition of FSK-stimulated cAMP, activity in words: relative to CP55940.

Test [2] deals with T2, hCB2R (Homo sapiens, UniProt P34972).
T2 construct: host or cells: CHO-K1 (PathHunter)
T2 sequence (P34972 whole entry): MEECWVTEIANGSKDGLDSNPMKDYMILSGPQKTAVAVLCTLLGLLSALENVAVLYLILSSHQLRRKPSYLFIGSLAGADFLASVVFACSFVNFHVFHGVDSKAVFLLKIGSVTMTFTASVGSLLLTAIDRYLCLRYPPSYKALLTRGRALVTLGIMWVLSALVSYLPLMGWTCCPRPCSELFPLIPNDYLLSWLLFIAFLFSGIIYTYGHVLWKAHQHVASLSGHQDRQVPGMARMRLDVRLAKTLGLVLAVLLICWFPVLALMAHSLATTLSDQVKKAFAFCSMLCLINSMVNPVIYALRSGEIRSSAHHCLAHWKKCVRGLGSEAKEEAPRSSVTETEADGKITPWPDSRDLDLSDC
Kind of test: HitHunter inhibition of FSK-stimulated cAMP, CB2R. It is filed as cell-based.

Test [3] has as its target T2, hCB2R. Description: [^3H]CP55,940 competition (radioligand displacement) binding to CB2R. The following applies: for CB2R [^3H]CP55,940 Emin: bottom of the concentration–response curve, mean ± SEM. For orientation: Loss of bound radioactivity is the signal in a displacement assay; it reports binding, not function.
For test [4], the target named is T2, hCB2R. Description: PathHunter βarrestin2 recruitment, CB2R. The class given is cell-based. To be noted: for βarrestin2 recruitment to CB2R, activity in words: relative to CP55,940.
In test [5] the target is T1, hCB1R. Description: cell-based. The following applies: for CB1R versus CB2R selectivity, βarrestin2 recruitment: CB1R vs CB2R; for EC50: CHO hCB1R, 90 min, value with 95% CI, read-out: CB1R βarrestin2 recruitment EC50; for Emax: read-out: CB1R βarrestin2 recruitment Emax; for βarrestin2 recruitment to CB1R, activity in words: relative to CP55940. It is filed as cell-based. A general note: Activated receptors often draw arrestin, which recruitment assays turn into a signal.

Test [6] addresses T2, hCB2R. Description: CB2R bias analysis (operational model, cAMP inhibition vs βarrestin2). It is filed as cell-based. To be noted: CP55,940 as reference agonist; >0 cAMP bias, <0 βarrestin2 bias. The method, then: Estimates of Ki, EC50, Emin, and Emax were determined using non-linear regression with variable slope (four parameters) (GraphPad, Prism, v. 8.0). […] One-way analysis of variance (ANOVA), followed by Tukey’s post-hoc test, was used for statistical analyses (p < 0.05 determined to be significant); and Bartlett’s test was used to confirm homogeneity of variance (GraphPad).

Test [7] concerns the target T1, hCB1R. Description: biochemical. To be noted: for CB1R [^3H]CP55,940 Emin: bottom of the concentration–response curve, mean ± SEM; for CB1R versus CB2R selectivity, receptor affinity: CB1R vs CB2R [^3H]CP55,940 binding. The class given is binding.

Structures are written as SMILES. “Also recorded” adds a separate entry of the source. Read-outs that look alike come from different tables or passages of the source. Bounds are passed on as bounds.

T1 sequence (P21554 whole entry): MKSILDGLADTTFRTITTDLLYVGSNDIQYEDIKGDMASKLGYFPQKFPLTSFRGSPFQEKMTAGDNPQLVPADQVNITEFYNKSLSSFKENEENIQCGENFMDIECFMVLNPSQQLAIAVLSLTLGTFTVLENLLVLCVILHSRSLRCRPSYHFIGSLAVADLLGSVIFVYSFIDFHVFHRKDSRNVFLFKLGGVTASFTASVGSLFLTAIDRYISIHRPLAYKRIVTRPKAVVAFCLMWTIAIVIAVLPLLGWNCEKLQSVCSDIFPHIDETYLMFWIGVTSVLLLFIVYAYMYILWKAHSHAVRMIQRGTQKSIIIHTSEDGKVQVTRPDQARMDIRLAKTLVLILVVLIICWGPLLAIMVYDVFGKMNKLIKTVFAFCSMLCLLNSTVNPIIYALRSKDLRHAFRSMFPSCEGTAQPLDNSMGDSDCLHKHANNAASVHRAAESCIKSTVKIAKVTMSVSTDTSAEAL

As usually defined, the EC50 is the concentration giving half of the maximal effect. In general, Emax refers to the size of the effect at its maximum, as opposed to the concentration needed. As usually defined, the Ki is the dissociation constant of the complex between target and ligand, obtained from inhibition or displacement. A higher Ki goes with a looser hold on the target. As to `COC(=O)[C@H](Cc1ccccc1)NC(=O)c1cn(CCCCCF)c2ccccc12` [5-fluoro MPP-PICA], in test [1], the EC50 came to 6.4 nM and the maximum response (Emax) was determined as 92 ± 6.8%. For the same molecule, in test [2], it took 12 nM to reach a half-maximal effect (EC50) and the maximum response (Emax) came to 110 ± 13%. For the same molecule, in test [3], the “Affinity for CB2R compared with CP55,940, in words” value was “significantly less affinity”; the Ki was found to be 540 nM; the “CB2R [^3H]CP55,940 Emin” value was 89 ± 6.3 %. In addition, in test [4], the midpoint of the response, the EC50, lay at 630 nM; the Emax came out at 82 ± 1.9%; the “βarrestin2 recruitment to CB2R, activity in words” value (“βarrestin2 recruitment to CB2R” for short) is “not different with regard to potency relative to the reference agonist CP55,940, and produced supramaximal EMax responses”. Moreover, in test [5], the “CB1R versus CB2R selectivity, βarrestin2 recruitment” value is listed as “minimally active at CB1R but agonists at CB2R”; the EC50 is more than 10000 nM; the maximal response (Emax) was 170 ± 9.8%. Also, the “CB2R bias between cAMP inhibition and βarrestin2 recruitment, ∆∆LogR (cAMP—βarr2), in words” value in test [6] was “did not display a bias”. Moreover, in test [7], the “Affinity for CB1R compared with CP55,940, in words” value is recorded as “significantly less affinity”; the affinity, expressed as Ki, was 1200 nM; the “CB1R [^3H]CP55,940 Emin” value was 59 ± 18 %.

For `N#CCCCCn1cc(C(=O)c2cccc3ccccc23)c2ccccc21` [AM 2232], the “CB1R versus CB2R selectivity, cAMP inhibition potency” value in test [1] (CB1R vs CB2R) is “more potent at CB2R relative to CB1R”. In test [1], the concentration for a half-maximal effect (EC50) was found to be 190 nM; the maximal response (Emax) was 100 ± 9.3%; the “CB1R-dependent inhibition of FSK-stimulated cAMP, activity in words” value was “significantly lower potency relative to CP55940, but retained full (i.e., 100%) efficacy”. In test [2], this molecule registered a 50% effective concentration (EC50) of 1.7 nM and an Emax of 86 ± 1.9%. In test [3], the “Affinity for CB2R compared with CP55,940, in words” value was “significantly less affinity”; the affinity, expressed as Ki, was 600 nM; the “CB2R [^3H]CP55,940 Emin” value worked out at 73 ± 6.2 %. In test [4], the EC50 is 130 nM; the maximal response (Emax) came to 130 ± 19%; the “βarrestin2 recruitment to CB2R” value was “greater potency and produced supramaximal EMax responses”. In test [5], the EC50 is more than 10000 nM and the maximal effect (Emax) turned out to be 68 ± 1.6%. Besides, the “CB2R bias between cAMP inhibition and βarrestin2 recruitment, ∆∆LogR (cAMP—βarr2), in words” value in test [6] was “significant bias toward the inhibition of cAMP”. In test [7], the Ki was determined as 0.31 nM; the “CB1R versus CB2R selectivity, receptor affinity” value is “greater affinity at CB1R relative to CB2R”; the “CB1R [^3H]CP55,940 Emin” value was 66 ± 3.6 %.

On to `O=C(c1ccc(Cl)c2ccccc12)c1cn(CCCCCF)c2ccccc12` [Cl 2201], for which, in test [1], the half-maximal effective concentration (EC50) stood at 2.6 nM and the Emax was 89 ± 3.9%. In test [2], the EC50 came to 1 nM and the Emax stood at 110 ± 8.4%. Further, in test [3], the Ki turned out to be 26 nM and the “CB2R [^3H]CP55,940 Emin” value turned out to be 66 ± 2.5 %. In test [4], this molecule gave an EC50 of 120 nM and an Emax of 17 ± 1.1%. For the same molecule, in test [5], the EC50 was more than 10000 nM; the maximal response (Emax) is 16 ± 1%; the “βarrestin2 recruitment to CB1R, activity in words” value (“βarrestin2 recruitment to CB1R” for short) is “Inactive at βarrestin2”. In addition, in test [6], the “CB2R bias between cAMP inhibition and βarrestin2 recruitment, ∆∆LogR (cAMP—βarr2), in words” value is reported as “significant bias toward the inhibition of cAMP”. Also, in test [7], affinity was put at a Ki of 0.09 nM; the “CB1R versus CB2R selectivity, receptor affinity” value is “greater affinity at CB1R relative to CB2R”; the “CB1R [^3H]CP55,940 Emin” value is reported as 76 ± 2.8 %.

With `CCCCCn1c2ccccc2c2cc(C(=O)c3cccc4ccccc34)ccc21` [EG 018], in test [1], the Emax was found to be 104 ± 18% and the “CB1R-dependent inhibition of FSK-stimulated cAMP, activity in words” value is listed as “significantly lower potency relative to CP55940, but retained full (i.e., 100%) efficacy”. The same molecule had a maximal effect (Emax) in test [2] of 85 ± 17%. The half-maximal effective concentration (EC50) in test [2] (CHO hCB2R, 10 µM FSK, 90 min, value with 95% CI, read-out: CB2R cAMP Inhibition EC50) came out at 51 nM. Moreover, in test [3], the “Affinity for CB2R compared with CP55,940, in words” value is recorded as “significantly greater affinity”; affinity was put at a Ki of 1.9 nM; the “CB2R [^3H]CP55,940 Emin” value is 53 ± 4.0 %. The molecule also yielded an Emax in test [4] of 10 ± 1.9%. Moreover, the half-maximal effective concentration (EC50) in test [4] (CHO hCB2R, 90 min, value with 95% CI, read-out: CB2R βarrestin2 recruitment EC50) came to 770 nM. Further, in test [5], the Emax stood at 5.2 ± 0.54% and the “βarrestin2 recruitment to CB1R” value is on record as “Inactive at βarrestin2”. In addition, the “CB2R bias between cAMP inhibition and βarrestin2 recruitment, ∆∆LogR (cAMP—βarr2), in words” value in test [6] was “significant bias toward the inhibition of cAMP”. Besides, the “CB1R [^3H]CP55,940 Emin” value in test [7] is given as 68 ± 6.1 %.

Regarding `O=C(Nc1cccc2ccccc12)c1cn(Cc2ccc(F)cc2)c2ccccc12` [FDU-NNEI], the concentration for a half-maximal effect (EC50) in test [1] is 1 nM; in test [2], 0.01 nM; in test [4] it was 1000 nM; in test [5], more than 10000 nM. The maximum response (Emax) in test [1] is 96 ± 8.1%; in test [2], 103 ± 7.1%; in test [4] it was 25 ± 1.3%; in test [5] it was 49 ± 8.2%. For the same molecule, the Ki in test [3] was 8.8 nM; in test [7] it was 14 nM. In addition, the “CB2R [^3H]CP55,940 Emin” value in test [3] is 85 ± 8.1 %. Further, the “CB2R bias between cAMP inhibition and βarrestin2 recruitment, ∆∆LogR (cAMP—βarr2), in words” value in test [6] is recorded as “significant bias toward the inhibition of cAMP”. Moreover, in test [7] (CB1R vs CB2R), the “CB1R versus CB2R selectivity, [^3H]CP55,940 displaced” value is “displaced more [^3H]CP55,940 at CB1R relative to CB2R”. Besides, the “CB1R versus CB2R selectivity, receptor affinity” value in test [7] was “greater affinity at CB1R relative to CB2R”. In test [7], the “CB1R [^3H]CP55,940 Emin” value worked out at 41 ± 2.8%.

Take `CCCCCn1cc(C(=O)c2cccc3ccccc23)cc1-c1ccccc1` [JWH 145]: in test [1] (CB1R vs CB2R), the “CB1R versus CB2R selectivity, cAMP inhibition potency” value is given as “more potent at CB1R relative to CB2R”. Moreover, in test [1], the EC50 was 0.03 nM and the Emax came to 82 ± 9.3%. In test [2], this molecule yielded an EC50 of 61 nM and an Emax of 86 ± 17%. In addition, in test [3], the “Affinity for CB2R compared with CP55,940, in words” value was “significantly less affinity”; the affinity corresponds to a Ki of 860 nM; the “CB2R [^3H]CP55,940 Emin” value amounted to 70 ± 6.1 %. Moreover, in test [4], a half-maximal effect (EC50) was put at 190 nM and the Emax stood at 15 ± 1.7%. Also, in test [5], the concentration for a half-maximal effect (EC50) was more than 10000 nM and the Emax amounted to 27 ± 9%. In addition, in test [6], the “CB2R bias between cAMP inhibition and βarrestin2 recruitment, ∆∆LogR (cAMP—βarr2), in words” value was “significant bias toward the inhibition of cAMP”. In test [7], the Ki came to 110 nM and the “CB1R [^3H]CP55,940 Emin” value came out at 69 ± 7.6 %.

For the molecule `CCCCCn1cc(C(=O)c2ccc(CCC)c3ccccc23)c2ccccc21` [JWH 182], in test [1] (CB1R vs CB2R), the “CB1R versus CB2R selectivity, cAMP inhibition efficacy” value is given as “greater efficacy at CB2R than CB1R”. Further, in test [1], the EC50 stood at 24 nM and the maximum response (Emax) stood at 78 ± 9.4%. Besides, in test [2], the EC50 stood at 25 nM and the Emax was 120 ± 11%. In addition, in test [3], the Ki came to 6.2 nM and the “CB2R [^3H]CP55,940 Emin” value came out at 21 ± 1.7 %. Besides, in test [4], the EC50 was more than 10000 nM; the Emax was 13 ± 1.8%; the “βarrestin2 recruitment to CB2R” value was “inactive in βarrestin2; also recorded: Inactive at βarrestin2”. In addition, in test [5], the “CB1R versus CB2R selectivity, βarrestin2 recruitment” value was “inactive at CB2R but an agonist at CB1R”; the 50% effective concentration (EC50) was found to be 1600 nM; the maximum response (Emax) worked out at 110 ± 9.2%; the “βarrestin2 recruitment to CB1R” value is given as “equipotent, but produced supramaximal EMax responses”. The “CB2R bias between cAMP inhibition and βarrestin2 recruitment, ∆∆LogR (cAMP—βarr2), in words” value in test [6] is recorded as “obligate cAMP-biased ligands”. In test [7], the Ki amounted to 0.77 nM and the “CB1R [^3H]CP55,940 Emin” value was 17 ± 2.2%.

These data come from paper PMC8134483 (Scientific Reports, 2021).
